In paper PMC13026664, “Transcriptional Activation of Estrogen Receptor-Alpha and Estrogen Receptor-Beta from Elephant Shark (Callorhynchus milii)” (Genes, 2026):

How the values were obtained:
elephant shark ERa4 = experiment: Transcriptional activation of ERa4; assay type: cell-based, elephant shark (Callorhynchus milii); conditions: ERa4 has a deletion in the DNA-binding domain
Protocol: (§1) Full-length estrogen receptors were amplified using specific forward and reverse primers designed at start and stop codons and cloned into the mammalian expression vector pcDNA3.1 (Invitrogen). In addition, ERs with a FLAG-tag added to the N-terminus were also prepared by PCR. A reporter construct, pGL4.23-4xERE, was produced by subcloning of oligonucleotides having 4xERE into the KpnI-HindIII site of pGL4.23 vector (Promega, Madison, WI, USA). All cloned DNA sequences were verified by sequencing.
Reporter gene assays using full-length ERs were performed in Human Embryonic Kidney 293 cells (HEK293 cells). HEK293 cells were seeded in 24-well plates at 5 × 10^4 cells/well in phenol-red-free Dulbecco’s modified Eagle’s medium with 10% charcoal/dextran-treated fetal bovine serum. […] After an additional 43 h, the cells were collected, and the luciferase activity of the cells was measured with the Dual-Luciferase Reporter Assay System. Promoter activity was calculated as firefly (Photinus pyralis) luciferase activity/sea pansy (R. reniformis) luciferase activity. The values shown are mean ± SEM from three separate experiments, and dose–response data, which were used to calculate the half-maximal response (EC50) for each steroid, were analyzed using GraphPad Prism (Version 11, GraphPad Software, Inc., San Diego, CA, USA). […]

amphioxus ER = conditions: cited from earlier work
[1] = test system: amphioxus steroid receptor (SR); conditions: cited from earlier work
Atlantic sea lamprey ER = conditions: cited from earlier work
elephant shark ERa2 = biological target: T1, elephant shark ERa2 (Callorhinchus milii, UniProt A0A1V1FR36)
T1 sequence (A0A1V1FR36 1-596): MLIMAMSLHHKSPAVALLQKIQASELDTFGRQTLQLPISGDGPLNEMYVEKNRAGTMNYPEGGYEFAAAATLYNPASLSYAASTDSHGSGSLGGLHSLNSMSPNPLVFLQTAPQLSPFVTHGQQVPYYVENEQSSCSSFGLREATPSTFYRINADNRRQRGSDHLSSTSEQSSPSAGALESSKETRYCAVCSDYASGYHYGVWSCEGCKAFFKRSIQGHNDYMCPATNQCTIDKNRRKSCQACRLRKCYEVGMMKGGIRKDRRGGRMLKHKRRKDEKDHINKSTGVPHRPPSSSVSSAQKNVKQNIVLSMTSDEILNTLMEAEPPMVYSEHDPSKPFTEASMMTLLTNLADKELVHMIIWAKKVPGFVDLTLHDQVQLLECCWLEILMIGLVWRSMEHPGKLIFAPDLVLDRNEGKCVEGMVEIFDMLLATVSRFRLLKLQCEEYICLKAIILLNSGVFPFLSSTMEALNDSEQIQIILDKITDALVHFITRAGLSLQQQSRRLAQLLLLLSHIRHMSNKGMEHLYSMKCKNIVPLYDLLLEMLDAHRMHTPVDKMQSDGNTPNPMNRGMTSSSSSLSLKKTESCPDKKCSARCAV
Protocol: as §1
(§2) Reporter gene assays using full-length ERs were performed in Human Embryonic Kidney 293 cells (HEK293 cells). HEK293 cells were seeded in 24-well plates at 5 × 10^4 cells/well in phenol-red-free Dulbecco’s modified Eagle’s medium with 10% charcoal/dextran-treated fetal bovine serum. After 24 h, the cells were transfected with 400 ng of reporter construct, 25 ng of pRL-TK (as an internal control to normalize the variation in transfection efficiency; contains the Renilla reniformis luciferase gene with the herpes simplex virus thymidine kinase promoter), and 200 ng of pcDNA3.1-estrogen receptor using polyethylenimine (PEI). After 5 h of incubation, ligands were applied to the medium at various concentrations. After an additional 43 h, the cells were collected, and the luciferase activity of the cells was measured with the Dual-Luciferase Reporter Assay System. Promoter activity was calculated as firefly (Photinus pyralis) luciferase activity/sea pansy (R. reniformis) luciferase activity. […] All experiments were performed in triplicate.
(§3) Elephant shark ERs were transfected into HEK293 cells with an ERE-driven reporter gene. […] Data are expressed as a ratio of a vehicle (DMSO) to other test chemicals. Each point represents the mean of triplicate determinations, and vertical bars represent the mean ± SEM.

elephant shark ERa3 = biological target: T2, elephant shark ERa3 (Callorhinchus milii, UniProt A0A1V1FR36)
T2 sequence (A0A1V1FR36 1-596): T1 sequence (A0A1V1FR36 1-596)
Protocol: as §1, §2, §3

elephant shark ERa1 = biological target: T3, elephant shark ERa1 (Callorhinchus milii, UniProt A0A1V1FR36); experiment: cell-based
T3 sequence (A0A1V1FR36 1-596): T1 sequence (A0A1V1FR36 1-596)
Protocol: as §1, §2, §3

elephant shark ERb = biological target: T4, elephant shark ERb (Callorhinchus milii, UniProt A0A1V1FJE9); experiment: cell-based
T4 sequence (A0A1V1FJE9 1-580): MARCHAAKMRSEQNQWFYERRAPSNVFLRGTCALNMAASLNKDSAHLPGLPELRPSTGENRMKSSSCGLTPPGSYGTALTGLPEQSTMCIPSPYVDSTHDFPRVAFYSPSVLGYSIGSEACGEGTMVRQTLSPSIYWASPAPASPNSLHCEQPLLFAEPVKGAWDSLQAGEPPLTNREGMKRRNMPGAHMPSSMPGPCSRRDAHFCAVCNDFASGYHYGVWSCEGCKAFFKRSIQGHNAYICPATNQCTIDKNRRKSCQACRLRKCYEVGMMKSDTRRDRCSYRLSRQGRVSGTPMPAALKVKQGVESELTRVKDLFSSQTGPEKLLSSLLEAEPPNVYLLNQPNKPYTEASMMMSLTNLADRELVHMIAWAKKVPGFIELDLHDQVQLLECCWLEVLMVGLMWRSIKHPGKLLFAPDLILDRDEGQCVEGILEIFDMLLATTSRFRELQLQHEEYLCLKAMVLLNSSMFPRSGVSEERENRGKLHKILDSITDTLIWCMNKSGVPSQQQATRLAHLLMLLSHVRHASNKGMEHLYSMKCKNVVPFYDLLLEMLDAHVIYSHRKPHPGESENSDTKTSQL
Protocol: as §1, §2, §3

[2] = HEK293, 43 h, read-out: Fold-Activation (±SEM)

| Compound | Transcriptional activation of ERa4 (elephant shark ERa4) | Binding to amphioxus ER (amphioxus ER) | Transcriptional activation of amphioxus SR [1] | Activation of Atlantic sea lamprey ER (Atlantic sea lamprey ER) | Ratio (fold-activation of each estrogen divided by the value of E2) (elephant shark ERa2; ERa2 in HEK293, 10 nM) | Fold-Activation (±SEM) (elephant shark ERa2; ERa2 in HEK293, based on the 10 nM values, ratio to vehicle (DMSO), 2580 min) | EC50 (elephant shark ERa2; read-out: EC50 for transcriptional activation, ERa2 in HEK293, 4xERE luciferase reporter) [nM] | Ratio (fold-activation of each estrogen divided by the value of E2) (elephant shark ERa3; ERa3 in HEK293, 10 nM) | Fold-Activation (±SEM) (elephant shark ERa3; ERa3 in HEK293, based on the 10 nM values, ratio to vehicle (DMSO), 2580 min) | EC50 (elephant shark ERa3; read-out: EC50 for transcriptional activation, ERa3 in HEK293, 4xERE luciferase reporter) [nM] | EC50 (elephant shark ERa1) [nM] | Ratio (fold-activation of each estrogen divided by the value of E2) (elephant shark ERa1; ERa1 in HEK293, 10 nM) | fold induction at 0.01 µM (elephant shark ERa1; [2]) | EC50 (elephant shark ERb) [nM] | Ratio (fold-activation of each estrogen divided by the value of E2) (elephant shark ERb; ERb in HEK293, 10 nM) | fold induction at 0.01 µM (elephant shark ERb; [2]) |
| --- | --- | --- | --- | --- | --- | --- | --- | --- | --- | --- | --- | --- | --- | --- | --- | --- |
| C[C@]12CC[C@@H]3c4ccc(O)cc4CC[C@H]3[C@@H]1CC[C@@H]2O [E2, 17b-estradiol] | lack of transcriptional activation | does not bind | transcriptional activators | activated |  |  |  |  |  |  |  |  |  |  |  |  |
| C[C@]12CC[C@@H]3c4ccc(O)cc4CC[C@H]3[C@@H]1C[C@@H](O)[C@@H]2O [E3, estriol] |  |  |  |  | 1.02 | 1.82 (±0.13) | 0.31 | 1.07 | 1.87 (±0.15) | 0.29 | 0.2 | 0.95 | 1.57 | 0.02 | 1.08 | 3.49 |
| C[C@]12CC[C@@H]3c4ccc(O)cc4CC[C@H]3[C@@H]1CCC2=O [E1, Estrone] |  |  | transcriptional activators | activated |  |  |  |  |  |  |  |  |  | 0.14 |  |  |
